Measurements as given in patent US11793823B2, “Compounds and pharmaceutical uses thereof” (SyneuRx International (Taiwan) Corp., priority 2020, dated 2023).
Structures can show the parent of a compound that is named as a salt.

Target: human D-amino acid oxidase (hDAAO) (Homo sapiens (Human), UniProt P14920)
Assay: In vitro human D-amino acid oxidase (hDAAO) activity, D-Serine/Amplex Red fluorescence
Type: biochemical
Settings: D-Serine substrate, 20 min
Procedure: The hDAAO inhibitory activities were measured by using D-Serine as a substrate to produce H2O2. The produced H2O2 would be oxidized by peroxidase, and the produced free radicals would further react with Amplex Red reagent to emit fluorescence. The intensity of fluorescence at 590 nm would be measured to represent the activity of hDAAO. All compounds were dissolved in DMSO. Each compound was diluted with DMSO in 3-fold serial dilution to create a dose response curve. Each sample was added in triplicate, 1 µL/well, into 96-well black plates. Positive control wells were added with 1 μL of DMSO. Then 49 μL of assay buffer (100 mM Tris-HCl, pH 8.5) containing 1.2 ng/mL hDAAO, 900 nM FAD, 0.2 units/mL HRP, and 100 μM Amplex Red was added to each well of the plate using a multichannel pipette. Next, 50 μL of 100 mM D-Serine in assay buffer was added. The reaction plates were then incubated in the dark at room temperature. The fluorescence readout was detected at 0 and 20 mins by Molecular Device Gemini EM fluorescence reader using the following settings: excitation filter 530 nm, and emission filter 590 nm. The percentage of inhibition values for each well was calculated with the following equation: The percentage of inhibition=(fluorescence sample, 20 min−fluorescence sample, 0 min)/(fluorescence DMSO, 20 min−fluorescence DMSO, 0 min)×100%
The nonlinear curve fitting model in GraphPad Prism was used to calculate IC50 value for each compound.

human D-amino acid oxidase (hDAAO), sequence (P14920 whole entry): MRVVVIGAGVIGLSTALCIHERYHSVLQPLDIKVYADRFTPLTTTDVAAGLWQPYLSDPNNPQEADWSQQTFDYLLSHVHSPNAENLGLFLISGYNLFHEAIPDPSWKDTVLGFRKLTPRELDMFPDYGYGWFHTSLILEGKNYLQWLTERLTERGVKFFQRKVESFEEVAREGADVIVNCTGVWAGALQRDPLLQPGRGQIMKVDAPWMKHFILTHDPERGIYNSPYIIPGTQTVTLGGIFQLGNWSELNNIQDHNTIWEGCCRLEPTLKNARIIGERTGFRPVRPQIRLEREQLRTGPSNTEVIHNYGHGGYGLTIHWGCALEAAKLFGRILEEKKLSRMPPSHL

Row | Compound | IC50
1 | 3-((3-((3-((3-((3-((3-((3-((1H-pyrrole-2-carbonyl)oxy)-4,5-dihydroxybenzoyl)oxy)-4,5-dihydroxybenzoyl)oxy)-4,5-dihydroxybenzoyl)oxy)-4,5-dihydroxybenzoic acid [Compound 28] | 82 nM
2 | O=C(O)c1cc(O)c(O)c(OC(=O)c2cc(O)c(O)c(OC(=O)c3cc(O)c(O)c(OC(=O)c4cc(O)c(O)c(OC(=O)c5cc(O)c(O)c(OC(=O)c6cc(O)c(O)c(OC(=O)c7cc(O)c(O)c(O)c7)c6)c5)c4)c3)c2)c1 [Compound 22, 3-((3-((3-((3-((3-((3,4-dihydroxy-5-((3,4,5-trihydroxybenzoyl)oxy)benzoyl)oxy)-4,5-dihydroxybenzoyl)oxy)-4,5-dihydroxybenzoyl)oxy)-4,5-dihydroxybenzoyl)oxy)-4,5-dihydroxybenzoyl)oxy)-4,5-dihydroxybenzoic acid] | 63 nM
3 | O=C(O)c1cc(O)c(O)c(OC(=O)c2cc(O)c(O)c(OC(=O)c3cc(O)c(O)c(OC(=O)c4cc(O)c(O)c(OC(=O)c5cc(O)c(O)c(OC(=O)c6ccc[nH]6)c5)c4)c3)c2)c1 [Compound 25, 3-((3-((3-((3-((3-((1H-pyrrole-2-carbonyl)oxy)-4,5-dihydroxybenzoyl)oxy)-4,5-dihydroxybenzoyl)oxy)-4,5-dihydroxybenzoyl)oxy)-4,5-dihydroxybenzoyl)oxy)-4,5-dihydroxybenzoic acid] | 89 nM
4 | O=C(O)c1cc(O)c(O)c(OC(=O)c2cc(O)c(O)c(OC(=O)c3cc(O)c(O)c(OC(=O)c4cc(O)c(O)c(OC(=O)c5cc(O)c(O)c(OC(=O)c6cc(CCc7ccccc7)n[nH]6)c5)c4)c3)c2)c1 [Compound 34, 3-((3-((3-((3-((3,4-dihydroxy-5-((3-phenethyl-1H-pyrazole-5-carbonyl)oxy)benzoyl)oxy)-4,5-dihydroxybenzoyl)oxy)-4,5-dihydroxybenzoyl)oxy)-4,5-dihydroxybenzoyl)oxy)-4,5-dihydroxybenzoic acid] | 68 nM
5 | O=C(O)c1cc(O)c(O)c(OC(=O)c2cc(O)c(O)c(OC(=O)c3cc(O)c(O)c(OC(=O)c4cc(O)c(O)c(OC(=O)c5cc(O)c(O)c(OC(=O)c6cc(CCc7cccc8c7CCCC8)n[nH]6)c5)c4)c3)c2)c1 [Compound 42, 3-((3-((3-((3-((3,4-dihydroxy-5-((3-(2-(5,6,7,8-tetrahydronaphthalen-1-yl)ethyl)-1H-pyrazole-5-carbonyl)oxy)benzoyl)oxy)-4,5-dihydroxybenzoyl)oxy)-4,5-dihydroxybenzoyl)oxy)-4,5-dihydroxybenzoyl)oxy)-4,5-dihydroxybenzoic acid] | 31 nM
6 | O=C(O)c1cc(O)c(O)c(OC(=O)c2cc(O)c(O)c(OC(=O)c3cc(O)c(O)c(OC(=O)c4cc(O)c(O)c(OC(=O)c5cc(O)c(O)c(OC(=O)c6cc(CCc7ccc(F)cc7)n[nH]6)c5)c4)c3)c2)c1 [Compound 50, 3-((3-((3-((3-((3-((3-(4-fluorophenethyl)-1H-pyrazole-5-carbonyl)oxy)-4,5-dihydroxybenzoyl)oxy)-4,5-dihydroxybenzoyl)oxy)-4,5-dihydroxybenzoyl)oxy)-4,5-dihydroxybenzoyl)oxy)-4,5-dihydroxybenzoic acid] | 38 nM
7 | O=C(O)c1cc(O)c(O)c(OC(=O)c2cc(O)c(O)c(OC(=O)c3cc(O)c(O)c(OC(=O)c4cc(O)c(O)c(OC(=O)c5cc(O)c(O)c(OC(=O)c6cc(CCc7cc(F)cc(F)c7)n[nH]6)c5)c4)c3)c2)c1 [Compound 58, 3-((3-((3-((3-((3-((3-(3,5-difluorophenethyl)-1H-pyrazole-5-carbonyl)oxy)-4,5-dihydroxybenzoyl)oxy)-4,5-dihydroxybenzoyl)oxy)-4,5-dihydroxybenzoyl)oxy)-4,5-dihydroxybenzoyl)oxy)-4,5-dihydroxybenzoic acid] | 33 nM
8 | O=C(Oc1cccnc1)c1cc(O)c(O)c(OC(=O)c2cc(O)c(O)c(OC(=O)c3cc(O)c(O)c(OC(=O)c4cc(O)c(O)c(OC(=O)c5cc(O)c(O)c(O)c5)c4)c3)c2)c1 [Compound 94, 5-((5-((5-((2,3-dihydroxy-5-((pyridin-3-yloxy)carbonyl)phenoxy)carbonyl)-2,3-dihydroxyphenoxy)carbonyl)-2,3-dihydroxyphenoxy)carbonyl)-2,3-dihydroxyphenyl 3,4,5-trihydroxybenzoate hydrochloride salt] | 42 nM
9 | O=C(Oc1cc(C(=O)Oc2cc(C(=O)Oc3cc(C(=O)Oc4cc(C(=O)OC5CCCCC5)cc(O)c4O)cc(O)c3O)cc(O)c2O)cc(O)c1O)c1cc(O)c(O)c(O)c1 [Compound 96, Cyclohexyl 3-((3-((3-((3,4-dihydroxy-5-((3,4,5-trihydroxybenzoyl)oxy)benzoyl)oxy)-4,5-dihydroxybenzoyl)oxy)-4,5-dihydroxybenzoyl)oxy)-4,5-dihydroxybenzoate] | 26 nM
10 | O=C(Oc1cc(C(=O)Oc2cc(C(=O)Oc3cc(C(=O)Oc4cc(C(=O)OC5CC5)cc(O)c4O)cc(O)c3O)cc(O)c2O)cc(O)c1O)c1cc(O)c(O)c(O)c1 [Compound 98, 5-((5-((5-((5-(cyclopropoxycarbonyl)-2,3-dihydroxyphenoxy)carbonyl)-2,3-dihydroxyphenoxy)carbonyl)-2,3-dihydroxyphenoxy)carbonyl)-2,3-dihydroxyphenyl 3,4,5-trihydroxybenzoate] | 33 nM
11 | O=C(Oc1cc(C(=O)Oc2cc(C(=O)Oc3cc(C(=O)Oc4cc(C(=O)OC5CCCCCC5)cc(O)c4O)cc(O)c3O)cc(O)c2O)cc(O)c1O)c1cc(O)c(O)c(O)c1 [Compound 100, cycloheptyl 3-((3-((3-((3,4-dihydroxy-5-((3,4,5-trihydroxybenzoyl)oxy)benzoyl)oxy)-4,5-dihydroxybenzoyl)oxy)-4,5-dihydroxybenzoyl)oxy)-4,5-dihydroxybenzoate] | 19 nM
12 | O=C(Oc1cc(OC(=O)c2cc(O)c(O)c(OC(=O)c3cc(O)c(O)c(OC(=O)c4cc(O)c(O)c(OC(=O)c5cc(O)c(O)c(OC(=O)c6cc(O)c(O)c(O)c6)c5)c4)c3)c2)cc(OC(=O)c2cc(O)c(O)c(OC(=O)c3cc(O)c(O)c(OC(=O)c4cc(O)c(O)c(OC(=O)c5cc(O)c(O)c(OC(=O)c6cc(O)c(O)c(O)c6)c5)c4)c3)c2)c1)c1ccccc1 [Compound 103, 5-(benzoyloxy)-1,3-phenylene bis(3-((3-((3-((3,4-dihydroxy-5-((3,4,5-trihydroxybenzoyl)oxy)benzoyl)oxy)-4,5-dihydroxybenzoyl)oxy)-4,5-dihydroxybenzoyl)oxy)-4,5-dihydroxybenzoate)] | 7 nM
13 | O=C(Oc1cc(OC(=O)c2cc(O)c(O)c(OC(=O)c3cc(O)c(O)c(OC(=O)c4cc(O)c(O)c(OC(=O)c5cc(O)c(O)c(OC(=O)c6cc(O)c(O)c(O)c6)c5)c4)c3)c2)cc(OC(=O)c2cc(CCc3ccc(C(F)(F)F)cc3)n[nH]2)c1)c1cc(O)c(O)c(OC(=O)c2cc(O)c(O)c(OC(=O)c3cc(O)c(O)c(OC(=O)c4cc(O)c(O)c(OC(=O)c5cc(O)c(O)c(O)c5)c4)c3)c2)c1 [Compound 107, 5-((3-(4-(trifluoromethyl)phenethyl)-1H-pyrazole-5-carbonyl)oxy)-1,3-phenylene bis(3-((3-((3-((3,4-dihydroxy-5-((3,4,5-trihydroxybenzoyl)oxy)benzoyl)oxy)-4,5-dihydroxybenzoyl)oxy)-4,5-dihydroxybenzoyl)oxy)-4,5-dihydroxybenzoate)] | 7 nM
14 | O=C(Oc1cc(C(=O)O[C@H]2OC[C@@H](OC(=O)c3cc(O)c(O)c(OC(=O)c4cc(O)c(O)c(O)c4)c3)[C@H](OC(=O)c3cc(O)c(O)c(OC(=O)c4cc(O)c(O)c(O)c4)c3)[C@H]2OC(=O)c2cc(O)c(O)c(OC(=O)c3cc(O)c(O)c(O)c3)c2)cc(O)c1O)c1cc(O)c(O)c(O)c1 [Compound 117, (2R,3R,4S,5R)-tetrahydro-2H-pyran-2,3,4,5-tetrayl tetrakis(3,4-dihydroxy-5-((3,4,5-trihydroxybenzoyl)oxy)benzoate)] | 9 nM
15 | O=C(Oc1cc(C(=O)Oc2cc(C(=O)O[C@H]3OC[C@@H](OC(=O)c4cc(O)c(O)c(OC(=O)c5cc(O)c(O)c(OC(=O)c6cc(O)c(O)c(O)c6)c5)c4)[C@H](OC(=O)c4cc(O)c(O)c(OC(=O)c5cc(O)c(O)c(OC(=O)c6cc(O)c(O)c(O)c6)c5)c4)[C@H]3OC(=O)c3cc(O)c(O)c(OC(=O)c4cc(O)c(O)c(OC(=O)c5cc(O)c(O)c(O)c5)c4)c3)cc(O)c2O)cc(O)c1O)c1cc(O)c(O)c(O)c1 [Compound 119, (2R,3R,4S,5R)-tetrahydro-2H-pyran-2,3,4,5-tetrayl tetrakis(3-((3,4-dihydroxy-5-((3,4,5-trihydroxybenzoyl)oxy)benzoyl)oxy)-4,5-dihydroxybenzoate)] | 5 nM
